Drawing on PubChem BioAssay (NCI), this text covers TGI for 14 compounds.

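96-well plates; 48 h exposure; 5 concentrations. Endpoints by linear interpolation between flanking doses. Not reached: highest tested concentration assigned. TGI: concentration producing complete growth inhibition.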 Some results are limits rather than exact numbers.

In the first assay the test system is A498 renal. Kind of assay: inhibition of tumour cell growth, NCI panel, 48 h.
`S=c1sc2c(s1)SCCCCSCCCCSc1sc(=S)sc1SCCCCSCCCCS2` gave a TGI above 100 µM.
On to `COc1ccc2oc(=N)c(C(=O)NCc3ccccc3)cc2c1`, for which the TGI was found to be 35.1 µM.
`O=C1c2ccccc2S(=O)(=O)c2c1cccc2[N+](=O)[O-]` returned a TGI above 8.45 µM.
Same read-out and setting: the value for `O=C(CCCN1CCC2(CC1)OC(=O)N(c1ccccc1)C2=O)c1ccccc1` was above 100 µM; that for `O=C1c2c(ccc3c2CCCC3)CC12Cc1ccc3c(c1C2=O)CCCC3` was above 100 µM; that for `CCOC(CN=C=S)OCC` was above 10 µM.
Still for that read-out and setting: the value for `O=CC(=C(I)I)c1ccccc1` was 40.7 µM; that for `O=C1C=C2C(=NC34CCCCC3C(c3ccccc3)C3=C(c5ccccc5CC3)N24)c2ccccc21` (stereo not drawn) was above 10 µM; that for `COCCN(C(C)=O)C1CCC2(SCCS2)c2[nH]c3ccccc3c21` (stereo not drawn) was above 100 µM.
Same read-out and setting: for `[N-]=[N+]=Nc1c(C=O)c(=O)n2c3c(cccc13)CCC2` the value was 28.8 µM; for `NC(=O)NNc1nc2ccccc2c(=O)n1NC(=O)C(=O)Nc1ccc(Cl)cc1Cl`, above 100 µM.
In the case of `COC(O)C(=O)c1c2c(cc3c1CC1(Cc4cc5c(cc4C1)CCC5)C3)CCC2` (stereo not drawn), the TGI is 31.8 µM.
Take `CCC1NC(=O)C1NC(=O)OC` (stereo not drawn): the TGI is above 100 µM.

For another assay, the system named is NCI-H460 lung. Kind of assay: inhibition of tumour cell growth, NCI panel, 48 h.
Compound `COc1ccc2c(C)cc(N/N=C(\C)C=O)nc2c1` registered a TGI of 24.9 µM.
`S=c1sc2c(s1)SCCCCSCCCCSc1sc(=S)sc1SCCCCSCCCCS2` gave a TGI above 100 µM.
The same measure, in the same setting: for `COc1ccc2oc(=N)c(C(=O)NCc3ccccc3)cc2c1` the value was above 100 µM; for `O=C1c2ccccc2S(=O)(=O)c2c1cccc2[N+](=O)[O-]`, above 10 µM; for `O=C(CCCN1CCC2(CC1)OC(=O)N(c1ccccc1)C2=O)c1ccccc1`, above 100 µM.
The same measure, in the same setting: for `O=C1c2c(ccc3c2CCCC3)CC12Cc1ccc3c(c1C2=O)CCCC3` the value was above 100 µM; for `CCOC(CN=C=S)OCC`, above 10 µM.
For `O=CC(=C(I)I)c1ccccc1`, the TGI came out at 40.9 µM.
On the same count and under the same terms, the value for `O=C1C=C2C(=NC34CCCCC3C(c3ccccc3)C3=C(c5ccccc5CC3)N24)c2ccccc21` (stereo not drawn) was above 10 µM; that for `COCCN(C(C)=O)C1CCC2(SCCS2)c2[nH]c3ccccc3c21` (stereo not drawn) was above 100 µM; that for `[N-]=[N+]=Nc1c(C=O)c(=O)n2c3c(cccc13)CCC2` was 47.2 µM.
Same read-out and setting: the value for `NC(=O)NNc1nc2ccccc2c(=O)n1NC(=O)C(=O)Nc1ccc(Cl)cc1Cl` was above 100 µM; that for `COC(O)C(=O)c1c2c(cc3c1CC1(Cc4cc5c(cc4C1)CCC5)C3)CCC2` (stereo not drawn) was 42.7 µM.
Turning to `CCC1NC(=O)C1NC(=O)OC` (stereo not drawn), the TGI was above 100 µM.

For the next assay, the system named is OVCAR-5 ovarian. Kind of assay: inhibition of tumour cell growth, NCI panel, 48 h.
`COc1ccc2c(C)cc(N/N=C(\C)C=O)nc2c1` registered a TGI of 28.2 µM.
Still for that read-out and setting: the value for `S=c1sc2c(s1)SCCCCSCCCCSc1sc(=S)sc1SCCCCSCCCCS2` was above 100 µM; that for `COc1ccc2oc(=N)c(C(=O)NCc3ccccc3)cc2c1` was above 100 µM.
Still for that read-out and setting: for `O=C1c2ccccc2S(=O)(=O)c2c1cccc2[N+](=O)[O-]` the value was above 10 µM; for `O=C(CCCN1CCC2(CC1)OC(=O)N(c1ccccc1)C2=O)c1ccccc1`, above 100 µM.
On the same count and under the same terms, for `O=C1c2c(ccc3c2CCCC3)CC12Cc1ccc3c(c1C2=O)CCCC3` the value was above 100 µM; for `O=CC(=C(I)I)c1ccccc1`, 15.1 µM; for `O=C1C=C2C(=NC34CCCCC3C(c3ccccc3)C3=C(c5ccccc5CC3)N24)c2ccccc21` (stereo not drawn), above 10 µM.
The compound `COCCN(C(C)=O)C1CCC2(SCCS2)c2[nH]c3ccccc3c21` (stereo not drawn) returned a TGI above 100 µM.
In turn, `[N-]=[N+]=Nc1c(C=O)c(=O)n2c3c(cccc13)CCC2` gave a TGI of 21 µM.
`NC(=O)NNc1nc2ccccc2c(=O)n1NC(=O)C(=O)Nc1ccc(Cl)cc1Cl` showed a TGI above 100 µM.
The same measure, in the same setting: the value for `COC(O)C(=O)c1c2c(cc3c1CC1(Cc4cc5c(cc4C1)CCC5)C3)CCC2` (stereo not drawn) was 33.5 µM; that for `CCC1NC(=O)C1NC(=O)OC` (stereo not drawn) was above 100 µM.

The subject of another assay is MALME-3M melanoma. Kind of assay: inhibition of tumour cell growth, NCI panel, 48 h.
For `COc1ccc2c(C)cc(N/N=C(\C)C=O)nc2c1`, the TGI turned out to be 28 µM.
`S=c1sc2c(s1)SCCCCSCCCCSc1sc(=S)sc1SCCCCSCCCCS2` registered a TGI above 100 µM.
On the same count and under the same terms, for `COc1ccc2oc(=N)c(C(=O)NCc3ccccc3)cc2c1` the value was 39.3 µM; for `O=C1c2ccccc2S(=O)(=O)c2c1cccc2[N+](=O)[O-]`, 3.02 µM.
On the same count and under the same terms, for `O=C(CCCN1CCC2(CC1)OC(=O)N(c1ccccc1)C2=O)c1ccccc1` the value was above 100 µM; for `O=C1c2c(ccc3c2CCCC3)CC12Cc1ccc3c(c1C2=O)CCCC3`, above 100 µM.
Consider `CCOC(CN=C=S)OCC`, for which the TGI is above 10 µM.
The same measure, in the same setting: the value for `O=CC(=C(I)I)c1ccccc1` was 4.4 µM.
`O=C1C=C2C(=NC34CCCCC3C(c3ccccc3)C3=C(c5ccccc5CC3)N24)c2ccccc21` (stereo not drawn) displayed a TGI above 10 µM.
Still for that read-out and setting: the value for `COCCN(C(C)=O)C1CCC2(SCCS2)c2[nH]c3ccccc3c21` (stereo not drawn) was above 100 µM; that for `[N-]=[N+]=Nc1c(C=O)c(=O)n2c3c(cccc13)CCC2` was 4.26 µM; that for `NC(=O)NNc1nc2ccccc2c(=O)n1NC(=O)C(=O)Nc1ccc(Cl)cc1Cl` was above 100 µM.
The compound `COC(O)C(=O)c1c2c(cc3c1CC1(Cc4cc5c(cc4C1)CCC5)C3)CCC2` (stereo not drawn) displayed a TGI of 31.2 µM.
`CCC1NC(=O)C1NC(=O)OC` (stereo not drawn): the TGI is above 100 µM.

The subject of a further assay is SF-295 CNS. Kind of assay: inhibition of tumour cell growth, NCI panel, 48 h.
Turning to `COc1ccc2c(C)cc(N/N=C(\C)C=O)nc2c1`, the TGI was determined as 28.8 µM.
The same measure, in the same setting: for `S=c1sc2c(s1)SCCCCSCCCCSc1sc(=S)sc1SCCCCSCCCCS2` the value was above 100 µM; for `COc1ccc2oc(=N)c(C(=O)NCc3ccccc3)cc2c1`, 65 µM; for `O=C1c2ccccc2S(=O)(=O)c2c1cccc2[N+](=O)[O-]`, above 10 µM.
For the compound `O=C(CCCN1CCC2(CC1)OC(=O)N(c1ccccc1)C2=O)c1ccccc1`, the TGI was above 100 µM.
Still for that read-out and setting: for `O=C1c2c(ccc3c2CCCC3)CC12Cc1ccc3c(c1C2=O)CCCC3` the value was above 100 µM; for `CCOC(CN=C=S)OCC`, above 10 µM; for `O=CC(=C(I)I)c1ccccc1`, 31.2 µM.
Same read-out and setting: the value for `O=C1C=C2C(=NC34CCCCC3C(c3ccccc3)C3=C(c5ccccc5CC3)N24)c2ccccc21` (stereo not drawn) was above 10 µM; that for `COCCN(C(C)=O)C1CCC2(SCCS2)c2[nH]c3ccccc3c21` (stereo not drawn) was above 100 µM.
For the compound `[N-]=[N+]=Nc1c(C=O)c(=O)n2c3c(cccc13)CCC2`, the TGI is above 76.6 µM.
Still for that read-out and setting: the value for `NC(=O)NNc1nc2ccccc2c(=O)n1NC(=O)C(=O)Nc1ccc(Cl)cc1Cl` was above 100 µM; that for `COC(O)C(=O)c1c2c(cc3c1CC1(Cc4cc5c(cc4C1)CCC5)C3)CCC2` (stereo not drawn) was 41.8 µM.
Turning to `CCC1NC(=O)C1NC(=O)OC` (stereo not drawn), the TGI was above 100 µM.
